We go through 1 compound from article PMC9775061 (2022).

Assay [1] concerns rGG-(CAG)6-CC (RNA, repeat) GGCAGCAGCAGCAGCAGCAGCC
Description: fluorescence titration (turn-on, 463 nm, λex 300 nm). The conditions noted are these: 300 mM NaCl; 20 mM MOPS pH 7.0; 10 µM DB-TPE; apparent; 1:1 model.

For assay [2], the system named is complementary (CAG)3/(CUG)3 RNA duplex (rGG-(CAG)3-CC and rGG-(CUG)3-CC) (RNA, duplex) GGCAGCAGCAGCC/GGCUGCUGCUGCC
Description: fluorescence turn-on (λex 300 nm). Conditions: 300 mM NaCl; 20 mM MOPS pH 7.0; 10 µM DB-TPE, 1 eq. duplex; much weaker fluorescence, likely non-specific electrostatic.

For the compound `CN(C)CCCNC(=N)c1ccc(C(=N)NCCCN(C)Cc2cn(Cc3ccc(C(=C(c4ccccc4)c4ccccc4)c4ccccc4)cc3)nn2)cc1`, the Kd in assay [1] turned out to be 2 µM. In assay [2], the binding result is “weak”.
